Data published in US20170088546A1 (priority 2014, published 2017).
Read-outs that look alike come from different tables or passages of the source.

Columns and labels:
Smurf-1 = Smurf-1 (Homo sapiens, UniProt Q9HCE7); experiment: biochemical; assay type: biochemical
Source text: (§1) To determine the HECT E3 ligase selectivity of the compounds, a panel of biochemical HECT E3 ligase autoubiquitinylation assays was employed (Smurf-1, Smurf-2, WWP1, WWP2, ITCH, Nedd4, Nedd4L and E6AP). The conjugation of ubiquitin to a protein substrate is a multistep process. In an initial ATP-requiring step, a thioester bond is formed between the carboxyl terminus of ubiquitin and an internal cystein residue of the ubiquitin-activating enzyme (E1). Activated ubiquitin is then transferred to a specific cystein residue of an ubiquitin-conjugating enzyme (E2). E2s donate ubiquitin to a HECT E3 ligase (E3) from which it is transferred to the substrate protein. HECT E3 ligases can auto-ubiquitinylate. This event is detected in the TR-FRET (Time-Resolved Fluorescence Resonance Energy Transfer) assay used in this panel. The reaction mix contains E1, E2, tagged-E3, biotin-conjugated ubiquitin, the compound and ATP in a suitable buffer and is incubated for 45 minutes to allow auto-ubiquitinylation of the E3 ligase. To measure the extent of ubiquitinylated E3 ligase by TR-FRET, the donor fluorophore Europium cryptate (Eu3+ cryptate), conjugated to streptavidin which subsequently binds to biotinylated ubiquitin, and the modified allophycocyanin XL665 (HTRF® primary acceptor fluorophore) coupled to a tag-specific antibody (HA, His or GST), which recognizes the respective E3 ligase fusion proteins, are added after the reaction is complete. When these two fluorophores are brought together by a biomolecular interaction (in this case ubiquitinylation of the E3 ligase), a portion of the energy captured by the Cryptate during excitation is released through fluorescence emission at 620 nm, while the remaining energy is transferred to XL665. This energy is then released by XL665 as specific fluorescence at 665 nm. Light at 665 nm is emitted only through FRET with Europium.
(§2) Test and reference compounds are prepared at 180×[final] in 90% DMSO, and diluted 1:3 in 90% DMSO.
(§3) For the biochemical assay panel, 50 nl of the test compounds, reference compounds and buffer/DMSO control are transferred to the respective wells of a 384-well white GREINER “SMALL VOLUME” PS plate. The assay panel is run at room temperature on a Biomek FX liquid handling workstation. To the assay plates containing 50 nl compound or control solutions in 90% DMSO, 4.5 ul of E3 ligase solution were added per well, followed by 4.5 ul of the pre-incubated E1/E2/Ub mix or the pre-diluted ubiquitin (LOW control). Plates are shaken vigorously after each addition. In this assay the compound concentrations range from 3 nM to 10 uM in an 8-point dose-response curve.
(§4) After an incubation time of 45 min in the dark, the plates are transferred into the Pherastar fluorescence reader to measure the TR-FRET signal.

Smurf-2 = Smurf-2 (Homo sapiens, UniProt Q9HAU4); experiment: HECT E3 ligase autoubiquitinylation TR-FRET assay, Smurf-2; assay type: biochemical
Chain of Smurf-2 (Q9HAU4 whole entry, species assumed): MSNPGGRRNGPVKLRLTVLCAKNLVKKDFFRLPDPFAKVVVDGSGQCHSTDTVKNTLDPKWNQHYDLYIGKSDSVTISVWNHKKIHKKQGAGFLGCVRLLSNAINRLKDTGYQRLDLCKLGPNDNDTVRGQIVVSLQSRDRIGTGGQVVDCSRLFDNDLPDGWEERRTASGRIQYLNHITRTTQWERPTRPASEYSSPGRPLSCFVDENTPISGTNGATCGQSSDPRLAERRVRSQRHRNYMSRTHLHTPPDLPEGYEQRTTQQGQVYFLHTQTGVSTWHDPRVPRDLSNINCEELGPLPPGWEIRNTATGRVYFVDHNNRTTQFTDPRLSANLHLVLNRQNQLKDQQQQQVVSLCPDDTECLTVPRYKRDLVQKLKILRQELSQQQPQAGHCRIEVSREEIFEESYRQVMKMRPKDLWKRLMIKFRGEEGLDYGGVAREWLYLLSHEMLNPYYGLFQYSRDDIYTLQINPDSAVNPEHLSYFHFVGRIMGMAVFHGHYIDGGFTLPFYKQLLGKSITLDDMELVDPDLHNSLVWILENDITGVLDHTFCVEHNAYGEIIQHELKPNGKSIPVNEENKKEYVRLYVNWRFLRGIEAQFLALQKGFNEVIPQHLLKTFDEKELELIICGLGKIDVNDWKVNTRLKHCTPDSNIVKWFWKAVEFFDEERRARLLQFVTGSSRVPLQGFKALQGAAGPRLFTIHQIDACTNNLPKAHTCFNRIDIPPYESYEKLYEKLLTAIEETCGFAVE
Source text: as §1, §2, §3, §4

[1] = biochemical autoubiquitinylation TR-FRET, 45 min incubation, 8-point dose-response 3 nM to 10 uM
[2] = biochemical autoubiquitinylation TR-FRET, 45 min incubation, 8-point dose-response 3 nM to 10 uM, read-out: Smurf-2/IC50

Chain of Smurf-1 (Q9HCE7 whole entry): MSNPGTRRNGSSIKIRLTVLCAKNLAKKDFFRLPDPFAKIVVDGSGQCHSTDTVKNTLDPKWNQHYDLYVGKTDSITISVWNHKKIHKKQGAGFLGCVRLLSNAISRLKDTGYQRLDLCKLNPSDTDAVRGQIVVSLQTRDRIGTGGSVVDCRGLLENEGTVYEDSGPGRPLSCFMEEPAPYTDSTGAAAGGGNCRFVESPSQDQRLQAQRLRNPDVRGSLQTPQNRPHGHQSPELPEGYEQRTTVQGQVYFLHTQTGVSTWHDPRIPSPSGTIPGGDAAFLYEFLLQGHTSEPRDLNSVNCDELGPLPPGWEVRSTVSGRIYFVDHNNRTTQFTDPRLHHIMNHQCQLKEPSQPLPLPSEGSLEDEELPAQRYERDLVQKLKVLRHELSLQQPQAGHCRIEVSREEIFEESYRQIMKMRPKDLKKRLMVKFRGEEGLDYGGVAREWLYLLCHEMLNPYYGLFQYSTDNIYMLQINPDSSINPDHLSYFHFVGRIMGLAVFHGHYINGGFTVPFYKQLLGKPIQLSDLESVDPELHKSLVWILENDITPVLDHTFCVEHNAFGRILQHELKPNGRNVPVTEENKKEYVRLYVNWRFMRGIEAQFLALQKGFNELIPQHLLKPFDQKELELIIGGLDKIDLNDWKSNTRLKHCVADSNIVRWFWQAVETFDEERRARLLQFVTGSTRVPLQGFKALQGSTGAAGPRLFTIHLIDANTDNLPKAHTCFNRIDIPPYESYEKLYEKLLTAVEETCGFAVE

## COc1ccc2c(c1)CCCc1c(C(=O)Nc3c(C)n(C)n(CC4CCCCC4)c3=O)noc1-2 [Example 37, N-(2-(cyclohexylmethyl)-1,5-dimethyl-3-oxo-2,3-dihydro-1H-pyrazol-4-yl)-8-methoxy-5,6-dihydro-4H-benzo[3,4]cyclohepta[1,2-d]isoxazole-3-carboxamide]
Smurf-1; [1]
  IC50: 1040 nM
Smurf-2
  IC50: > 10000 nM

## COc1ccc2c(c1)CCCCc1c(C(=O)Nc3c(C)n(C)n(C4CCCCC4)c3=O)noc1-2 [Example 5, N-(2-Cyclohexyl-1,5-dimethyl-3-oxo-2,3-dihydro-1H-pyrazol-4-yl)-9-methoxy-4,5,6,7-tetrahydrobenzo[3,4]cycloocta[1,2-d]isoxazole-3-carboxamide]
Smurf-1; [1]
  IC50: 91.8 nM
Smurf-2; [2]
  IC50: 8350 nM

## Cc1c(NC(=O)c2noc3c2CCCc2cc(OC(F)(F)F)ccc2-3)c(=O)n(C2CCCCC2)n1C [Example 45, N-(2-cyclohexyl-1,5-dimethyl-3-oxo-2,3-dihydro-1H-pyrazol-4-yl)-8-(trifluoromethoxy)-5,6-dihydro-4H-benzo[3,4]cyclohepta[1,2-d]isoxazole-3-carboxamide]
Smurf-1; [1]
  IC50: 2.2 nM
Smurf-2; [2]
  IC50: 175 nM

## Cc1c(NC(=O)c2noc3c2CCCc2cc(OC(F)(F)F)ccc2-3)c(=O)n(-c2ccccc2F)n1C [Example 3, N-(2-(2-Fluorophenyl)-1,5-dimethyl-3-oxo-2,3-dihydro-1H-pyrazol-4-yl)-8-(trifluoromethoxy)-5,6-dihydro-4H-benzo[3,4]cyclohepta[1,2-d]isoxazole-3-carboxamide]
Smurf-1; [1]
  IC50: 17 nM
Smurf-2; [2]
  IC50: 830 nM

## COc1ccc2c(c1)OCCCc1c(C(=O)Nc3c(C)n(C)n(C4CCCCC4)c3=O)noc1-2 [Example 54, N-(2-cyclohexyl-1,5-dimethyl-3-oxo-2,3-dihydro-1H-pyrazol-4-yl)-9-methoxy-5,6-dihydro-4H-benzo[2,3]oxocino[5,4-d]isoxazole-3-carboxamide]
Smurf-1
  IC50: 192 nM
Smurf-2
  IC50: > 10000 nM

## COc1ccc2c(c1)CCCc1c(C(=O)Nc3c(C)n(C)n(-c4ccc(F)cc4)c3=O)noc1-2 [Example 2, N-(2-(4-Fluorophenyl)-1,5-dimethyl-3-oxo-2,3-dihydro-1H-pyrazol-4-yl)-8-methoxy-5,6-dihydro-4H-benzo[3,4]cyclohepta[1,2-d]isoxazole-3-carboxamide]
Smurf-1; [1]
  IC50: 410 nM
Smurf-2; [2]
  IC50: 8550 nM

## COc1ccc2c(c1)CCCc1c(C(=O)Nc3c(C)n(C)n(C4CCCC4)c3=O)noc1-2 [Example 34, N-(2-cyclopentyl-1,5-dimethyl-3-oxo-2,3-dihydro-1H-pyrazol-4-yl)-8-methoxy-5,6-dihydro-4H-benzo[3,4]cyclohepta[1,2-d]isoxazole-3-carboxamide]
Smurf-1; [1]
  IC50: 29.2 nM
Smurf-2; [2]
  IC50: 9500 nM

## COc1ccc2c(c1)CCCc1c(C(=O)Nc3c(C)n(C)n(-c4ccc(C)cc4C)c3=O)noc1-2 [Example 22, N-(2-(2,4-dimethylphenyl)-1,5-dimethyl-3-oxo-2,3-dihydro-1H-pyrazol-4-yl)-8-methoxy-5,6-dihydro-4H-benzo[3,4]cyclohepta[1,2-d]isoxazole-3-carboxamide]
Smurf-1; [1]
  IC50: 495 nM
Smurf-2
  IC50: > 10000 nM

## CCc1ccc2c(c1)CCc1c(C(=O)Nc3c(C)n(C)n(-c4ccccc4)c3=O)noc1-2 [Example 7, N-(1,5-dimethyl-3-oxo-2-phenyl-2,3-dihydro-1H-pyrazol-4-yl)-7-ethyl-4,5-dihydronaphtho[2,1-d]isoxazole-3-carboxamide]
Smurf-1; [1]
  IC50: 568 nM
Smurf-2
  IC50: > 10000 nM

## COc1ccc2c(c1)CCCc1c(C(=O)Nc3c(C)n(C)n(Cc4ccc(F)cc4)c3=O)noc1-2 [Example 57, N-(2-(4-fluorobenzyl)-1,5-dimethyl-3-oxo-2,3-dihydro-1H-pyrazol-4-yl)-8-methoxy-5,6-dihydro-4H-benzo[3,4]cyclohepta[1,2-d]isoxazole-3-carboxamide]
Smurf-1; [1]
  IC50: 2700 nM

## Cc1c(NC(=O)c2noc3c2CCCc2cc(OC(F)(F)F)ccc2-3)c(=O)n(Cc2ccccc2F)n1C [Example 43, N-(2-(2-fluorobenzyl)-1,5-dimethyl-3-oxo-2,3-dihydro-1H-pyrazol-4-yl)-8-(trifluoromethoxy)-5,6-dihydro-4H-benzo[3,4]cyclohepta[1,2-d]isoxazole-3-carboxamide]
Smurf-1; [1]
  IC50: 58 nM
